Structures can show the parent of a compound that is named as a salt.
Test: Preservation stability of the crystal at 40° C/75% RH for 6 months (water content by Karl-Fischer, content by HPLC)
Type: physicochemical
Details: for content (%) (converted into dehydrated form): HPLC method; for water content (%): Karl-Fischer method
Protocol: A crystal of 3-[5-(4-carbamimidoyl-2-fluorophenoxy)carbonyl-2-thienyl]-2,2-dimethylpropanoic acid hydrochloride obtained by the method of Example 3 was preserved for 6 months under 40° C/75% RH conditions. […] Therefore, the crystalline form is useful as a crystalline form of a drug substance for pharmaceutical products.
The water content was measured by the Karl-Fischer method, and the content was measured by the HPLC method using a column charged with octadecylsilyl silica gel for liquid chromatography.

CC(C)(Cc1ccc(C(=O)Oc2ccc(C(=N)N)cc2F)s1)C(=O)O [Example 3, 3-[5-(4-carbamimidoyl-2-fluorophenoxy)carbonyl-2-thienyl]-2,2-dimethylpropanoic acid hydrochloride]
content (%) (converted into dehydrated form) (6 months at 40° C/75% RH): 99.5%
water content (%) (6 months at 40° C/75% RH): 0.1%
preservation stability of the crystal (40° C./75% RH for 6 months): stable
content (%) (converted into dehydrated form) (start): 99.5%
water content (%) (start): 0.1%
